Test: mGlu5 Ca2+ Flux Assay: HEK 293A cells stably expressing rat mGlu5 were plated in black-walled, clear-bottomed, poly-D-lysine coated 384-well plates in 20 μL of assay medium (DMEM containing 10% dialyzed FBS, 20 mM HEPES, 100 units/mL penicillin/streptomycin plus 250 ng/mL Fungizone, and 1 mM sodium pyruvate) at a density of 20K cells/well. The cells were grown overnight at 37° C. in the presence of 5% CO2. The next day, medium was removed and the cells incubated with 20 μL of 2.3 μM Fluo-4, AM prepared as a 2.3 mM stock in DMSO and mixed in a 1:1 ratio with 10% (w/v) pluronic acid F-127 and diluted in assay buffer (Hank's balanced salt solution, 20 mM HEPES, and 2.5 mM probenecid) for 45 minutes at 37° C. Dye was removed, 20 μL of assay buffer was added, and the plate was incubated for 5 minutes at room temperature.

Work on `O=C1c2cc(CNc3ccc(OC(F)F)cc3)nn2CCN1c1ccc(F)cc1` yielded an IC50 of 0.334 µM.
In the case of `COc1ccc(N(C)Cc2cc3n(n2)CCN(c2ccc(OC)cc2)C3=O)cc1`, the IC50 (HEK293-A) is reported as 2.88 µM.
`COc1ccc(NCc2cc3n(n2)CCN(c2ccc(F)c(F)c2)C3=O)cc1` showed an IC50 (HEK293-A) of 1.47 µM.
Work on `Cc1cccc(NCc2cc3n(n2)[C@H](C)CN(c2ccc(F)cc2)C3=O)c1` yielded an IC50 of 1.21 µM.
For `COc1ccc(N(C)Cc2cc3n(n2)CCN(c2c(F)cccc2F)C3=O)cc1`, the IC50 (HEK293-A) was 1.02 µM.
`Cc1cccc(NCc2cc3n(n2)[C@@H](C)CN(c2ccc(F)cc2)C3=O)c1` gave an IC50 (HEK293-A) of 1.84 µM.

Source: ChEMBL document CHEMBL5725412, “Substituted pyrazolo[1,5-a]pyrazines as negative allosteric modulators of metabotropic glutamate receptor 3” (2017)
